Among the data in patent US9206173B2, “Heterocyclic compounds for the treatment of stress-related conditions” (OTSUKA PHARMACEUTICAL CO., LTD., priority 2009, dated 2015) are Ki values, retold here.

Counter-ions that a name gives are not always drawn.

Chain of human GPR10 (P49683 whole entry): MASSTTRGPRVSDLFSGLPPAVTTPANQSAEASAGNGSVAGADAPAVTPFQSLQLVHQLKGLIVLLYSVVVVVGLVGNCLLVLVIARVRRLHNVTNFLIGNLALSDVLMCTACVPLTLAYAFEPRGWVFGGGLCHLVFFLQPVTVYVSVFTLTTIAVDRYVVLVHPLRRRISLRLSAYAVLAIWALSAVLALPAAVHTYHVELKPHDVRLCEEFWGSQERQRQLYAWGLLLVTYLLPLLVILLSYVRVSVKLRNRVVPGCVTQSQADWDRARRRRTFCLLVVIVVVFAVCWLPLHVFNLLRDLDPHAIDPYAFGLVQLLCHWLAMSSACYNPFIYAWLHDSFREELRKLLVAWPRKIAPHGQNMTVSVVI

For this experiment, the target named is human GPR10 (Homo sapiens (Human), UniProt P49683). Put plainly: Inhibitory activity on binding of [3H]-PrRP to GPR10 (HEK 293 cell membrane fraction). As to conditions: [3H]-PrRP 1 nM, human GPR10-expressing HEK 293 cell membrane fraction; Ki from IC50 by Cheng-Prussoff formula. As for the experimental part:
Inhibitory Activity on Binding of [^3H]-PrRP to GPR10
Human GPR10 receptor expressing human embryonic kidney cells, HEK 293 cells, were cultured in Dulbecco's Modified Eagle's medium supplemented with 10% fetal bovine serum and 1% penicilline-streptmycin at 37° C., in 5% carbon dioxide gas conditions. The medium was removed and the cells were recovered in a phosphate buffer to prepare a cell suspension. The cell suspension was homogenated on ice by an ultrasonic cell homogenizer (Microson™ type XL200) and centrifuged at 40,000 g for 10 minutes at 4° C. After the supernatant was discarded, Buffer A (20 mM HEPES, 10 mM EDTA, 1 μl/ml protease inhibiting cocktail, pH 7.4) was added to the pellet. The pellet was suspended by the ultrasonic cell homogenizer, then the suspension was centrifuged at 40,000 g, for 10 minutes at 4° C. After this operation was repeated once again, the supernatant was discarded, Buffer B (20 mM HEPES, 0.1 mM EDTA, pH 7.4) was added to the pellet, and the pellet was suspended by the ultrasonic homogenizer. This was stored at a freezer of −80° C. as a cell membrane fraction until use in a binding test.
To each well of a 96-well plate, 150 μl of assay buffer (20 mM HEPES, 10 mM EDTA, 1 μl/ml protease inhibiting agent cocktail, pH 7.4), 20 μl of cell membrane fraction, 10 μl of test compound and [^3H]-PrRP (final concentration 1 nM) were added and incubated at room temperature for 90 minutes. After completion of the reaction, using a cell harvester, the cell-membrane fraction sample product was filtered under aspiration by a glass fiber filter plate (Unifilter; GF/B) previously treated with 0.5% polyethylene imine. The filter was washed with a 50 mM Tris hydrochloric acid buffer (pH 7.4) three times. After the filter was dried in a dryer (50° C.) for about 3 hours, 40 μl of liquid scintillation cocktail (MicroScint-O) was added to each well and radio activity was measured by a scintillation counter (Packard Topcount). The radio activity in the presence of an excessive amount of non-labeled PrRP (final concentration: 100 nM) was regarded as non-specific binding.
The binding inhibition rate was calculated based on calculating formula: 100−(radio activity when a compound is added−radio activity of non-specific binding)÷(radio activity when a solvent is added−radio activity of non-specific binding)×100.
An IC50 value was calculated based on the concentration dependent reaction using a non-linear analysis program and a Ki value was calculated using Cheng-Prussoff formula.
As to `COn1c(N[C@@H](C)c2ccc(Cl)cc2)nc2c(c1=O)CN(C(=O)c1cc3cccnc3s1)CC2` [Example 2495, 2-[(S)-1-(4-chlorophenyl)ethylamino]-3-methoxy-6-(thieno[2,3-b]pyridine-2-carbonyl)-5,6,7,8-tetrahydro-3H-pyrido[4,3-d]pyrimidin-4-one hydrochloride], the affinity corresponds to a Ki of 3 nM.
Then `COn1c(N[C@H](c2ccc(Cl)cc2)C(C)C)nc2c(c1=O)CN(C(=O)c1cc3ccccn3n1)CC2` [Example 2483, 2-[(S)-1-(4-chlorophenyl)-2-methylpropylamino]-3-methoxy-6-(pyrazolo[1,5-a]pyridine-2-carbonyl)-5,6,7,8-tetrahydro-3H-pyrido[4,3-d]pyrimidin-4-one], with 13 nM; and `COn1c(N[C@@H](C)C2CCCCC2)nc2c(c1=O)CN(C(=O)c1ccc(Cl)cc1)CC2` [Example 2470, 6-(4-chlorobenzoyl)-2-((S)-1-cyclohexyl-ethylamino)-3-methoxy-5,6,7,8-tetrahydro-3H-pyrido[4,3-d]pyrimidin-4-one], with 108 nM; and `CC[C@H](Nc1nc2c(c(=O)n1OC)CN(C(=O)c1ccc(C#N)cc1F)CC2)c1ccc(C(F)(F)F)cc1` [Example 2482, 3-fluoro-4-{3-methoxy-4-oxo-2-[(S)-1-(4-trifluoromethylphenyl)propylamino]-3,5,7,8-tetrahydro-4H-pyrido[4,3-d]pyrimidine-6-carbonyl}benzonitrile], with 8 nM.
To `COn1c(N[C@H](c2ccc(Cl)cc2)C(C)C)nc2c(c1=O)CN(C(=O)c1cc3ccccc3cn1)CC2` [Example 2489, 2-[(S)-1-(4-chlorophenyl)-2-methylpropylamino]-6-(isoquinoline-3-carbonyl)-3-methoxy-5,6,7,8-tetrahydro-3H-pyrido[4,3-d]pyrimidin-4-one] belongs 26 nM; to `C#CCCn1c(N[C@@H](C)c2ccc(C(F)(F)F)cc2)nc2c(c1=O)CN(C(=O)c1ccc(C(=O)N(C)C)cc1)CC2` [Example 2494, 4-{3-(3-butynyl)-4-oxo-2-[(S)-1-(4-trifluoromethylphenyl)ethylamino]-3,5,7,8-tetrahydro-4H-pyrido[4,3-d]pyrimidine-6-carbonyl}-N,N-dimethylbenzamide], 201 nM; to `COn1c(N2CCCC2c2ccc(C(F)(F)F)cc2)nc2c(c1=O)CN(C(=O)c1ccc(Cl)cc1)CC2` (centres unmarked) [Example 2475, 6-(4-chlorobenzoyl)-3-methoxy-2-[2-(4-trifluoromethylphenyl)pyrrolidin-1-yl]-5,6,7,8-tetrahydro-3H-pyrido[4,3-d]pyrimidin-4-one], 34 nM.
Take `COn1c(N[C@@H](C)c2ccc(C(F)(F)F)cc2)nc2c(c1=O)CN(C(=O)c1cc3ccccc3s1)CC2` [Example 2474, 6-(benzo[b]thiophene-2-carbonyl)-3-methoxy-2-[(S)-1-(4-trifluoromethylphenyl)ethylamino]-5,6,7,8-tetrahydro-3H-pyrido[4,3-d]pyrimidin-4-one]: the Ki stood at 15 nM.
Then `C#CCCn1c(N[C@@H](C)c2ccc(C(F)(F)F)cc2)nc2c(c1=O)CN(C(=O)c1nc3ccccc3[nH]1)CC2` [Example 2458, 6-(1H-benzoimidazole-2-carbonyl)-3-(3-butynyl)-2-[(S)-1-(4-trifluoromethylphenyl)ethylamino]-5,6,7,8-tetrahydro-3H-pyrido[4,3-d]pyrimidin-4-one], with 245 nM; and `COc1ccc2oc(C(=O)N3CCc4nc(N[C@@H](C)c5ccc(C(F)(F)F)cc5)n(OC)c(=O)c4C3)cc2c1` [Example 2460, 3-methoxy-6-(5-methoxybenzofuran-2-carbonyl)-2-[(S)-1-(4-trifluoromethylphenyl)ethylamino]-5,6,7,8-tetrahydro-3H-pyrido[4,3-d]pyrimidin-4-one], with 14 nM; and `C=Cc1ccc(C(=O)N2CCc3nc(N[C@@H](C)c4ccc(C(F)(F)F)cc4)n(OC)c(=O)c3C2)cc1` [Example 2456, 3-methoxy-2-[(S)-1-(4-trifluoromethylphenyl)ethylamino]-6-(4-vinylbenzoyl)-5,6,7,8-tetrahydro-3H-pyrido[4,3-d]pyrimidin-4-one], with 6 nM.
On to `COn1c(N[C@@H](C)c2ccc(C(F)(F)F)cc2)nc2c(c1=O)CN(C(=O)c1cc(-c3cccs3)n(C)n1)CC2` [Example 2464, 3-methoxy-6-(1-methyl-5-thiophen-2-yl-1H-pyrazole-3-carbonyl)-2-[(S)-1-(4-trifluoromethylphenyl)ethylamino]-5,6,7,8-tetrahydro-3H-pyrido[4,3-d]pyrimidin-4-one], for which the affinity corresponds to a Ki of 20 nM.
Then `COn1c(NCc2ccc(C(F)(F)F)cc2)nc2c(c1=O)CN(C(=O)c1ccc(Cl)cc1)CC2` [Example 2477, 6-(4-chlorobenzoyl)-3-methoxy-2-(4-trifluoromethylbenzylamino)-5,6,7,8-tetrahydro-3H-pyrido[4,3-d]pyrimidin-4-one hydrochloride], with 39 nM; and `COn1c(N[C@@H](C)c2ccc(C(F)(F)F)cc2)nc2c(c1=O)CN(C(=O)COc1ccc(C#N)cc1)CC2` [Example 2468, 4-(2-{3-methoxy-4-oxo-2-[(S)-1-(4-trifluoromethylphenyl)ethylamino]-3,5,7,8-tetrahydro-4H-pyrido[4,3-d]pyrimidin-6-yl}-2-oxo-ethoxy)benzonitrile], with 6 nM; and `COn1c(N[C@H](c2ccc(Cl)cc2)C(C)C)nc2c(c1=O)CN(C(=O)c1ccc3c(c1)OCCO3)CC2` [Example 2479, 2-[(S)-1-(4-chlorophenyl)-2-methylpropylamino]-6-(2,3-dihydrobenzo[1,4]dioxine-6-carbonyl)-3-methoxy-5,6,7,8-tetrahydro-3H-pyrido[4,3-d]pyrimidin-4-one], with 42 nM.
Then `CC#CCn1c(N[C@@H](C)c2ccc(C(F)(F)F)cc2)nc2c(c1=O)CN(C(=O)c1ccc3c(c1)OCO3)CC2` [Example 2444, 6-(benzo[1,3]dioxole-5-carbonyl)-3-(2-butynyl)-2-[(S)-1-(4-trifluoromethylphenyl)ethylamino]-5,6,7,8-tetrahydro-3H-pyrido[4,3-d]pyrimidin-4-one], with 42 nM; and `C#CCCn1c(N[C@@H](C)c2ccc(C(F)(F)F)cc2)nc2c(c1=O)CN(C(=O)c1ccc(C)cc1)CC2` [Example 2443, 3-(3-butynyl)-6-(4-methylbenzoyl)-2-[(S)-1-(4-trifluoromethylphenyl)ethylamino]-5,6,7,8-tetrahydro-3H-pyrido[4,3-d]pyrimidin-4-one], with 41 nM.
Take `COn1c(N[C@@H](C)c2ccc(C(F)(F)F)cc2)nc2c(c1=O)CN(C(=O)c1cc3cccnc3s1)CC2` [Example 2415, 3-methoxy-6-(thieno[2,3-b]pyridine-2-carbonyl)-2-[(S)-1-(4-trifluoromethylphenyl)ethylamino]-5,6,7,8-tetrahydro-3H-pyrido[4,3-d]pyrimidin-4-one]: the inhibition constant (Ki) worked out at 9 nM.
As to `COn1c(N[C@@H](C)c2ccc(C(F)(F)F)cc2)nc2c(c1=O)CN(C(=O)c1ccc3c(c1)OCCO3)CC2` [Example 2459, 6-(2,3-dihydrobenzo[1,4]dioxine-6-carbonyl)-3-methoxy-2-[(S)-1-(4-trifluoromethylphenyl)ethylamino]-5,6,7,8-tetrahydro-3H-pyrido[4,3-d]pyrimidin-4-one], affinity was put at a Ki of 10 nM.
To `COn1c(NCc2ccc(Cl)cc2)nc2c(c1=O)CN(C(=O)c1ccc(Cl)cc1)CC2` [Example 2462, 6-(4-chlorobenzoyl)-2-(4-chlorobenzylamino)-3-methoxy-5,6,7,8-tetrahydro-3H-pyrido[4,3-d]pyrimidin-4-one hydrochloride] belongs 98 nM; to `CCOc1ccc(CNc2nc3c(c(=O)n2OC)CN(C(=O)c2ccc(C#N)cc2F)CC3)cc1` [Example 2490, 4-[2-(4-ethoxybenzylamino)-3-methoxy-4-oxo-3,5,7,8-tetrahydro-4H-pyrido[4,3-d]pyrimidine-6-carbonyl]-3-fluorobenzonitrile], 237 nM; to `CC#CCn1c(N[C@@H](C)c2ccc(C(F)(F)F)cc2)nc2c(c1=O)CN(C(=O)c1ccc(OC)cc1)CC2` [Example 2448, 3-(2-butynyl)-6-(4-methoxybenzoyl)-2-[(S)-1-(4-trifluoromethylphenyl)ethylamino]-5,6,7,8-tetrahydro-3H-pyrido[4,3-d]pyrimidin-4-one], 23 nM.
To `COn1c(N[C@@H](C)C2CCCCC2)nc2c(c1=O)CN(C(=O)c1ccc(C#N)cc1F)CC2` [Example 2469, 4-[2-((S)-1-cyclohexylethylamino)-3-methoxy-4-oxo-3,5,7,8-tetrahydro-4H-pyrido[4,3-d]pyrimidine-6-carbonyl]-3-fluorobenzonitrile] belongs 56 nM.

As a reminder, the Ki is the dissociation constant of the complex between target and ligand, obtained from inhibition or displacement. A low value points to tighter binding.
